According to patent US10392368B2, “Pyrazolo and triazolo bicyclic compounds as JAK kinase inhibitors” (THERAVANCE BIOPHARMA R&D IP, LLC, priority 2017, dated 2019):

Legend:
[1] = Dynamic moisture sorption (DMS) assessment; assay type: physicochemical; conditions: 25° C.; for hygroscopicity: DMS, 5% to 90% relative humidity; for weight gain (moisture uptake): humidity range of 5% to 90% relative humidity
Description: Dynamic moisture sorption (DMS) measurements were performed using a VTI atmospheric microbalance, SGA-100 system (VTI Corp., Hialeah, Fla. 33016). A weighed sample was used and the humidity was lowest possible value (close to 0% RH) at the start of the analysis. The DMS analysis consisted of an initial drying step (0% RH) for 120 minutes, followed by two cycles of sorption and desorption with a scan rate of 5% RH/step over the humidity range of 5% RH to 90% RH. The DMS run was performed isothermally at 25° C.

[2] = target: T1, JAK1 (Homo sapiens, UniProt P23458); assay: Biochemical JAK1 kinase assay (LanthaScreen)
T1 construct: GST; purchased Life Technologies
T1 sequence (P23458 whole entry): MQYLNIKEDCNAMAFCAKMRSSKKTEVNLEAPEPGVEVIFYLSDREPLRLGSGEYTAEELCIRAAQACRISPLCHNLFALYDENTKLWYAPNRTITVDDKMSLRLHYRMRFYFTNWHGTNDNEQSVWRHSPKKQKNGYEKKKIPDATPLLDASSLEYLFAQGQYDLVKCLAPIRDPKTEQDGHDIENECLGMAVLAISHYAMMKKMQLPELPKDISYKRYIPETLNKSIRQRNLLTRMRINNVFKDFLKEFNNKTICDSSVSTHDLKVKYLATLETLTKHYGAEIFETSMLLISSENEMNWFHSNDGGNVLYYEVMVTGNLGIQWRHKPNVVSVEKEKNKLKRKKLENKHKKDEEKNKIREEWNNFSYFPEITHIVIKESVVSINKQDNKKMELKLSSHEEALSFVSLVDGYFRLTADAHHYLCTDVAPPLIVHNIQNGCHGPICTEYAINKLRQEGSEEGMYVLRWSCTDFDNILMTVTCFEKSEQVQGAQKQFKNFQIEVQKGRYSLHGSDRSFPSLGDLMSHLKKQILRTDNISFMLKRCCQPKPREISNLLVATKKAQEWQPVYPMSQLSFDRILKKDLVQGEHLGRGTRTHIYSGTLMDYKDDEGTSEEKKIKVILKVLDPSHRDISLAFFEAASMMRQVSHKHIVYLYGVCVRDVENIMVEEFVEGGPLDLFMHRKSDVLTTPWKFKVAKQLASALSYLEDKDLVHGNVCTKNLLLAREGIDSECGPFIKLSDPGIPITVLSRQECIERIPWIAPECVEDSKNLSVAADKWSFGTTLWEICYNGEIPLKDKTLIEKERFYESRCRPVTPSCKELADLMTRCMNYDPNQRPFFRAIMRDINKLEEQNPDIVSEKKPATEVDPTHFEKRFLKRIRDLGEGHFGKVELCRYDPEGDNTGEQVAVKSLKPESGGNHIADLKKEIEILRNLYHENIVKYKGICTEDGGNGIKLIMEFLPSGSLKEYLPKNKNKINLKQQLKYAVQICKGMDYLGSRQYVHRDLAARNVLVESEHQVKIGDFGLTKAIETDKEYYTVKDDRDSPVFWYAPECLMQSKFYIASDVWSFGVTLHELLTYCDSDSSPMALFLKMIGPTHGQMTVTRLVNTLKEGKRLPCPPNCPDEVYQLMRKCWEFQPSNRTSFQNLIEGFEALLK
Summary of the method: (§1)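 Recombinant GST-tagged JAK enzymes with GFP-STAT1 peptide substrate in 50 mM HEPES pH 7.5, 10 mM MgCl2, 1 mM EGTA, 0.01% Brij-35; compounds pre-incubated 1 h, then ATP added, 1 h reaction at ambient temperature. TR-FRET (Tb-anti-pSTAT1 pTyr701, 520/495 nm) after EDTA stop; IC50 by 4-parameter fit, converted to pKi via Cheng-Prusoff.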

[3] = target: T2, JAK2 (Homo sapiens, UniProt O60674); assay: Biochemical JAK2 kinase assay (LanthaScreen)
T2 construct: GST; purchased Life Technologies
T2 sequence (O60674 whole entry): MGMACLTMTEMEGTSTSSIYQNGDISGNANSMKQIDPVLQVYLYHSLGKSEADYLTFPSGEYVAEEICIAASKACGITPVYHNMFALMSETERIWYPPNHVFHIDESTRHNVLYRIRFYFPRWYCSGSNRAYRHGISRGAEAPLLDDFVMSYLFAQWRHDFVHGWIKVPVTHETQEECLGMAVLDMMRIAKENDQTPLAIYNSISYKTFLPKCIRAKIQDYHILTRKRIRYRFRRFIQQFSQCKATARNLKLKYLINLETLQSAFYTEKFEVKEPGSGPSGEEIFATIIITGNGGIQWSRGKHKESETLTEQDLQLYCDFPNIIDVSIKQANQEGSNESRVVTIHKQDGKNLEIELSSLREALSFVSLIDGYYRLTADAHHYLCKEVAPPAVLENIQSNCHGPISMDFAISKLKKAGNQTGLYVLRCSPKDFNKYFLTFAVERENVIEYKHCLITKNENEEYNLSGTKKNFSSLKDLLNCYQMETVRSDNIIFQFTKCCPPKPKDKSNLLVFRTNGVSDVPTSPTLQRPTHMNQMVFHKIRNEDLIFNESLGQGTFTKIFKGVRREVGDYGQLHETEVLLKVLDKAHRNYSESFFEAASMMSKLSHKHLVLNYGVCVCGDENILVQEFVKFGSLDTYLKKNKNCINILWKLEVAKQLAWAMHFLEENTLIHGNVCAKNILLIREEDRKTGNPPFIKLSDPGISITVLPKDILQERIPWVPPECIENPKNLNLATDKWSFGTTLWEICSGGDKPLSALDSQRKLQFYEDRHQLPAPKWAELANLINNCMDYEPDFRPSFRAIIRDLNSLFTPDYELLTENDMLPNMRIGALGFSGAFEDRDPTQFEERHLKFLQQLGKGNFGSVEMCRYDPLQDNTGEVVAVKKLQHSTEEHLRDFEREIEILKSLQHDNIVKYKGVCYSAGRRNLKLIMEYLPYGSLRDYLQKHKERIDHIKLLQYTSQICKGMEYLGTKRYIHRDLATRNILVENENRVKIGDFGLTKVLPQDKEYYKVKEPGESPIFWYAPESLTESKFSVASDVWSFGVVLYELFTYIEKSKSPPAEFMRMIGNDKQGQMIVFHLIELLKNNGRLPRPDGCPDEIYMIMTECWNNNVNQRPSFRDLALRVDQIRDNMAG
Summary of the method: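 GST-tagged recombinant JAK2 pre-incubated 1 h at ambient temperature with compound and GFP-STAT1 peptide in HEPES pH 7.5/MgCl2 buffer, then ATP added for a 1 h reaction with 1% DMSO. TR-FRET read after EDTA and Tb-anti-pSTAT1 (pTyr701) addition; IC50 from 4-parameter fit, converted to pKi by Cheng-Prusoff.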

[4] = target: T3, Tyk2 (Homo sapiens, UniProt P29597); assay: Biochemical Tyk2 kinase assay (LanthaScreen)
T3 construct: GST; purchased Life Technologies
T3 sequence (P29597 whole entry): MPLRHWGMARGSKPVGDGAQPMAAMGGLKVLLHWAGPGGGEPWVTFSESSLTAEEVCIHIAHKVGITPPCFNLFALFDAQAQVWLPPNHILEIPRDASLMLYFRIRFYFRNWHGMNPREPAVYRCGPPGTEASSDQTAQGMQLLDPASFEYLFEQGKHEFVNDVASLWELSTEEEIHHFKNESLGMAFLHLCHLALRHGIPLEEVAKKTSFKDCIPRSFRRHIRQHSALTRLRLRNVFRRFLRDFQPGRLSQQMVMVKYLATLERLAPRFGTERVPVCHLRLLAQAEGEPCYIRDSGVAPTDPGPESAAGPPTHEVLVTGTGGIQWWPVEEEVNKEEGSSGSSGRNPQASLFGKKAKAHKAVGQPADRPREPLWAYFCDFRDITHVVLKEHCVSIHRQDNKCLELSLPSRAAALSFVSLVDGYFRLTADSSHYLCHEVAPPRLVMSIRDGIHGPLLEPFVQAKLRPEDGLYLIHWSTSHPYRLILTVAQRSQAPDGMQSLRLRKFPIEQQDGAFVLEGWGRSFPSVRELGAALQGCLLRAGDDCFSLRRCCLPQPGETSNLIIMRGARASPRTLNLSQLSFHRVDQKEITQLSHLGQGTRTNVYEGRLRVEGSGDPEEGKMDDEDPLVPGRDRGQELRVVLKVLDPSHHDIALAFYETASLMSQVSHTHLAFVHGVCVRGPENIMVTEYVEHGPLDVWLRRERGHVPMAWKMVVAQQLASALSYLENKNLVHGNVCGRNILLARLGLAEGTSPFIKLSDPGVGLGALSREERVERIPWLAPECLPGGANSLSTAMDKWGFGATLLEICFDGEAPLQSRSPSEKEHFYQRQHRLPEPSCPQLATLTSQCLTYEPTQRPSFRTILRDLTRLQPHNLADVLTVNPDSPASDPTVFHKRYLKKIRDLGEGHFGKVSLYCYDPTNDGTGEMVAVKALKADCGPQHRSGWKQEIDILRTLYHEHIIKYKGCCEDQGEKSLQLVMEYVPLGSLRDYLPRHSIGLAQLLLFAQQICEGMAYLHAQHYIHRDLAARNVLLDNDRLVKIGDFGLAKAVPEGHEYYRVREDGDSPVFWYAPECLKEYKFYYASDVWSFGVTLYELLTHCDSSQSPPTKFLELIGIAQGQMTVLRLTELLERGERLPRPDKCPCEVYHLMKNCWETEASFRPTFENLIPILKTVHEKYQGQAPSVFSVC
Summary of the method: as §1

[5] = test system: IL-2 stimulated pSTAT5 in Tall-1 T cells; assay: Cellular JAK3 potency assay: inhibition of IL-2 stimulated pSTAT5 in Tall-1 T cells; assay type: cell-based, human; conditions: for Tall-1 (pIC50): IL-2 stimulated pSTAT5 in Tall-1 T cells
Summary of the method: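 Tall-1 human T cells (45,000/well) in phenol red-free DMEM with 10% FBS were preincubated with compound 1 h at 37 °C, then stimulated with IL-2 (final 300 ng/ml) for 30 min. Lysate pSTAT5 read by AlphaLisa; IC50 from inhibition curves, reported as pIC50 (mean±SD).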

[6] = test system: oxazolone-induced colitis; assay: Mouse model of oxazolone-induced colitis; assay type: in vivo
Description: Oxazolone-induced colitis is an experimental model that has a histological resemblance to human ulcerative colitis (Heller et al. Immunology, 2002, 17, 629-638). Adult BALB/C mice from Harlan were used in the assay. On day 1, animals were lightly anesthetized with isoflurane and the hairs between the shoulder were carefully removed before oxazolone (4%, 150 μL, 4:1 acetone:olive oil formulation) or vehicle solution was slowly applied for skin sensitization. Seven days after skin sensitization, the mice were fasted around 6 hours prior, anesthetized with ketamine/xylazine injection, and a 1 mL syringe equipped with a 3.5-F catheter, filled with oxazolone solution, was inserted carefully about 4 cm into the colon of the mouse. Following insertion, 50 μL of the oxazolone solution (0.8% in 1:1 ethanol:water formulation) was injected very slowly (over 30 sec using an injection pump) into the colon. Drug treatment (PO, QD or BID or TID) or vehicle was initiated a day prior to the oxazolone intrarectal (IR) challenge. Two-day post oxazolone intrarectal challenge, the disease was assessed by treatment-blinded experimenters for each mouse according to the criteria score: stool consistency score (0, normal; 2, loose; 4, diarrhea), gross bleeding score (0, absence; 2, blood tinged; 4, presence); Combined stool score endpoint=stool consistency score+stool blood score.
Select compounds were tested in the assay.

[7] = target: T4, JAK3 (Homo sapiens, UniProt P52333); assay: Biochemical JAK3 kinase assay (LanthaScreen); set-up: GST; purchased Life Technologies; conditions: for JAK3 (pKi)-JAK1 (pKi): selectivity: difference of pKi JAK3 and pKi JAK1
T4 sequence (P52333 1-1124): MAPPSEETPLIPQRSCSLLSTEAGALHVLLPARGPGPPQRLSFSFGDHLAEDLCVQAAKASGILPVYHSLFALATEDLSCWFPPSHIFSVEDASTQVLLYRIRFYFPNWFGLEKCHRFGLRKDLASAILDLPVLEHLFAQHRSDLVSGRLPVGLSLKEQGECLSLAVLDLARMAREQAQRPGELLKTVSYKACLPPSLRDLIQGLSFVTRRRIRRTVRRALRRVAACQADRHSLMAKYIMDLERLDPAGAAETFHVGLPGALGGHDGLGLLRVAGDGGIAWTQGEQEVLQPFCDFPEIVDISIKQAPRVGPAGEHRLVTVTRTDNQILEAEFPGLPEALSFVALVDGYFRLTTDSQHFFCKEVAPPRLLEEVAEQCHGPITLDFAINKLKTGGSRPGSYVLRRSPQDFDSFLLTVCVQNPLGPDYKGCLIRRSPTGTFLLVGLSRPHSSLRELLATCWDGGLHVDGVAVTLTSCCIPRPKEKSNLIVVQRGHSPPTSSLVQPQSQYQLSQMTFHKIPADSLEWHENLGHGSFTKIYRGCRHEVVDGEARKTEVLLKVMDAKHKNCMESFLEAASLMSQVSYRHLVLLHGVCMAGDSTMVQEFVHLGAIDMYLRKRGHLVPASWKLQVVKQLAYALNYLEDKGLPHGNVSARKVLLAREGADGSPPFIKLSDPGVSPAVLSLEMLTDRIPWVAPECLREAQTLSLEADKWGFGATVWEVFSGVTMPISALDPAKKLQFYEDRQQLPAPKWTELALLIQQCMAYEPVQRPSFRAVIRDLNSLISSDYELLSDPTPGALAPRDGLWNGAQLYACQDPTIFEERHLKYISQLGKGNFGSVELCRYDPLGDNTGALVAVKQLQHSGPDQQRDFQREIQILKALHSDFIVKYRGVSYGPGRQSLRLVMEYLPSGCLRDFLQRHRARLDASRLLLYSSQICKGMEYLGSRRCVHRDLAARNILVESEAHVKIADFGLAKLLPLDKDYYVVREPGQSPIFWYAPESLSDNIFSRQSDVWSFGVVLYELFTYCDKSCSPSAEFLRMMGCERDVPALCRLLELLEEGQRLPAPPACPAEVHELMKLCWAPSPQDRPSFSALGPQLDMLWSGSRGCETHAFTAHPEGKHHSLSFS
Summary of the method: as §1

SMILES	hygroscopicity [1]	weight gain (moisture uptake) [1]	JAK3 (pKi)-JAK1 (pKi) [7]	JAK 1 (pKi) [2]	JAK 2 (pKi) [3]	Tyk 2 (pKi) [4]	Tall-1 (pIC50) [5]	combined stool score endpoint as compared with vehicle treated animals ([6]; 3 mg/kg (PO, BID))	JAK 3 (pKi) [7]	also measured
CN(C)C/C=C/C(=O)N1CC(C(C)(C)Oc2cc(-c3ccc(O)c(Cl)c3)cc3[nH]ncc23)C1 [Form 1, (E)-1-(3-(2-((6-(3-chloro-4-hydroxyphenyl)-1H-indazol-4-yl)oxy)propan-2-yl)azetidin-1-yl)-4-(dimethylamino)but-2-en-1-one]	slightly hygroscopic	about 1.62%								
CN(C)C/C=C/C(=O)N1CC(C(C)(C)Oc2cc(-c3ccc(O)c(Cl)c3)cc3[nH]ncc23)C1 [Form 2, (E)-1-(3-(2-((6-(3-chloro-4-hydroxyphenyl)-1H-indazol-4-yl)oxy)propan-2-yl)azetidin-1-yl)-4-(dimethylamino)but-2-en-1-one]		7.99%								
CN(C)C/C=C/C(=O)N1CC(COc2cc(-c3ccc(O)cc3)cc3[nH]ncc23)C1 [Form 4, (E)-4-(dimethylamino)-1-(3-(((6-(4-hydroxyphenyl)-1H-indazol-4-yl)oxy)methyl)azetidin-1-yl)but-2-en-1-one]	moderately hygroscopic	about 5.01%								
CC(C)N(C)C/C=C/C(=O)N1CC(COc2cc(-c3ccc(O)cc3)cc3[nH]ncc23)C1 [Compound 3-113]			A (a value of 3 or above)							Ki ([2]; read-out: JAK 1 (pKi) (converted)): > 100 nM; Ki ([3]; read-out: JAK 2 (pKi) (converted)): 10 to 100 nM; Ki ([4]; read-out: Tyk 2 (pKi) (converted)): > 100 nM; IC50 ([5]; Homo sapiens, TALL-1, IL-2 stimulated pSTAT5 in Tall-1 T cells, read-out: Tall-1 (pIC50) (converted)): < 31.6 nM; combined stool score endpoint as compared with vehicle treated animals ([6]; 1 and 10 mg/kg only (PO, BID)): statistically significant decrease; Ki ([7]; read-out: JAK 3 (pKi) (converted)): < 0.1 nM
CN(C)C/C=C/C(=O)N1CC(C)(COc2nc(-c3ccc(O)cc3)cc3[nH]ncc23)C1 [Compound 3-55]			A (a value of 3 or above)	E (a pKi value of 7 or below (Ki of 100 nM or above))	E (a pKi value of 7 or below (Ki of 100 nM or above))	E (a pKi value of 7 or below (Ki of 100 nM or above))	B (a pIC50 value between 6.7 (included) and 7.5 (IC50 between 200 nM and 32 nM))	statistically significant decrease	A (a pKi value≥10 (Ki≤0.1 nM))	
C=CC(=O)N1CC(C(C)(C)Oc2cc(-c3ccc(O)c(F)c3)nc3[nH]ncc23)C1 [Compound 3-81]			A (a value of 3 or above)	E (a pKi value of 7 or below (Ki of 100 nM or above))	E (a pKi value of 7 or below (Ki of 100 nM or above))	E (a pKi value of 7 or below (Ki of 100 nM or above))	A (a pIC50 value≥7.5 (IC50≤32 nM))	statistically significant decrease	A (a pKi value≥10 (Ki≤0.1 nM))	
CN(C)C/C=C/C(=O)N1CC(C)(COc2cc(-c3ccc(O)c(F)c3)cc3[nH]ncc23)C1 [Compound 3-11]			A (a value of 3 or above)	E (a pKi value of 7 or below (Ki of 100 nM or above))	D (a pKi value between 7 and 8 (Ki between 100 nM and 10 nM))	E (a pKi value of 7 or below (Ki of 100 nM or above))	B (a pIC50 value between 6.7 (included) and 7.5 (IC50 between 200 nM and 32 nM))	statistically significant decrease	A (a pKi value≥10 (Ki≤0.1 nM))	
CN(C)C/C=C/C(=O)N1CC(COc2nc(-c3ccc(O)c(Cl)c3)cc3[nH]ncc23)C1 [Compound 3-34]			A (a value of 3 or above)	E (a pKi value of 7 or below (Ki of 100 nM or above))	E (a pKi value of 7 or below (Ki of 100 nM or above))	E (a pKi value of 7 or below (Ki of 100 nM or above))	B (a pIC50 value between 6.7 (included) and 7.5 (IC50 between 200 nM and 32 nM))	statistically significant decrease	A (a pKi value≥10 (Ki≤0.1 nM))	
C=CC(=O)N1CC(C(C)(C)Oc2cc(-c3ccc(O)c(Cl)c3)nc3[nH]ncc23)C1 [Compound 3-80]			A (a value of 3 or above)	E (a pKi value of 7 or below (Ki of 100 nM or above))	E (a pKi value of 7 or below (Ki of 100 nM or above))	E (a pKi value of 7 or below (Ki of 100 nM or above))	B (a pIC50 value between 6.7 (included) and 7.5 (IC50 between 200 nM and 32 nM))	statistically significant decrease	A (a pKi value≥10 (Ki≤0.1 nM))	
CN(C)C/C=C/C(=O)N1CC(COc2cc(-c3ccc(O)cc3)cc3[nH]ncc23)C1 [Form 3, (E)-4-(dimethylamino)-1-(3-(((6-(4-hydroxyphenyl)-1H-indazol-4-yl)oxy)methyl)azetidin-1-yl)but-2-en-1-one]	non-hygroscopic	about 0.33%								
